# Where “and” joins values, the source holds several entries; their conditions need not be identical. Identical values can stand only once. Marks after values point to notes of the source that are not given here.
# Assays:
# MPXV A29 [1] = assay type: binding, monkeypox virus (MPXV)
# MPXV A29 protein = assay type: binding, monkeypox virus (MPXV)
# MPXV A35 protein [2] = assay type: binding, monkeypox virus (MPXV)
# SARS-CoV-2 wild-type = settings: cited from earlier work
# [3] = tested on: SARS-CoV-2 Delta (B.1.617.2); settings: cited from earlier work
# MPXV A29 [4] = assay type: binding, monkeypox virus (MPXV); remark: listed apart in the source
# MPXV L1R = assay type: binding, monkeypox virus (MPXV)
# MPXV A35 protein [5] = assay type: binding, monkeypox virus (MPXV); remark: listed apart in the source
Substance,inhibition of MPXV A29 binding to heparin surface (in words) (MPXV A29 [1]),Normalized A29 protein binding (%) (MPXV A29 protein),ability to inhibit A29-surface-immobilized heparin interaction (in words) (MPXV A29 protein),inhibition of MPXV A29 binding to surface-immobilized heparin (MPXV A29 protein),Normalized A35 protein binding (%) (MPXV A35 protein [2]),ability to inhibit A35-surface-immobilized heparin interaction (in words) (MPXV A35 protein [2]),inhibition of MPXV A35 binding to surface-immobilized heparin (MPXV A35 protein [2]),further results
N-desulfated heparin,weaker inhibition,,,,,,,
"[→3)-α-Fuc2,4S-(1→3)-α-Fuc2S-(1→3)-α-Fuc2S-(1→3)-α-Fuc-(1→]n [IbSF]",,5.0** %,showed the ability to inhibit,95% and 92.4%,24.3* %,showed the ability to inhibit,75.8% and 77.4%,inhibitory activity against SARS-CoV-2 wild-type (in words) (SARS-CoV-2 wild-type): showed inhibitory activity; inhibitory activity against SARS-CoV-2 Delta (in words) [3]: showed inhibitory activity
mucopolysaccharide polysulfate [MPS],strongest inhibition,,,,,,,inhibition of MPXV A29 binding to surface-immobilized heparin (MPXV A29 [1]): 69%
2-O-desulfated IdoA heparin [2-desulfated heparin],weaker inhibition,,,,,,,
"chondroitin-4,6-sulfate [CSE]",,,,,,,,ka (MPXV A29 [4]): 4858 M⁻¹ s⁻¹; kd (MPXV A29 [4]): 1.5 × 10^−3 (±4.7 × 10^−5) s^−1
heparin,,43.3* %,,60%,27.7* %,,72%,kd (MPXV A29 [4]): 7.1 × 10^−3 (±5.0 × 10^−5) s^−1; Kd (MPXV A29 [4]; read-out: KD heparin-A29 interaction): 250 nM; binding between MPXV L1R protein and heparin (in words) (MPXV L1R): essentially no binding; ka (MPXV A35 protein [5]): 1.8 × 10^3 M^−1S^−1; Kd (MPXV A35 protein [5]; read-out: KD heparin-A35 interaction): 220 nM; inhibition of MPXV A29 binding to surface-immobilized heparin (MPXV A29 [1]): 30%
chondroitin-4-sulfate [CSA],,,,,,,,ka (MPXV A29 [4]): 3730 M⁻¹ s⁻¹; kd (MPXV A29 [4]): 3.2 × 10^−3 (±5.4 × 10^−5) s^−1
"[→3)-β-GalNAc4,6S-(1→4)β-GlcA-[(3→1)Y]-(1→]n, where Y=α-Fuc2,4S (96%) or α-Fuc4S (4%) [IbFucCS]",,7.6* %,showed the ability to inhibit,91.5% and 86.1%,20.1* %,showed the ability to inhibit,79.9% and 77%,inhibitory activity against SARS-CoV-2 wild-type (in words) (SARS-CoV-2 wild-type): showed inhibitory activity; inhibitory activity against SARS-CoV-2 Delta (in words) [3]: showed inhibitory activity
"[→3)-β-GalNAc4,6S-(1→4)-β-GlcA-[(3→1)Y]-(1→]n, where Y=αFuc2,4S (45%), α-Fuc3,4S (35%), or α-Fuc4S (20%) [HfFucCS]",,13.9* %,showed the ability to inhibit,,23.0* %,showed the ability to inhibit,,
"[→3)-α-GalNAcX(1→4)-β-GlcA-[(3→1)Y]-(1→]n, where X=4S (80%), 6S (10%), or non-sulfated (10%), and Y=−Fuc2,4S (40%), αFuc2,4S-(1→4)-α-Fuc (30%), or α-Fuc4S (30%) [PpFucCS]",,13.0* %,showed the ability to inhibit,87%,19.0* %,showed the ability to inhibit,89%,
"[→3)-α-Fuc2,4S-(1→3)-α-Fuc-(1→3)-α-Fuc2S-(1→3)-α-Fuc2S-(1→]n [HfSF]",,8.5** %,showed the ability to inhibit,,23.9* %,showed the ability to inhibit,,
dermatan sulfate [DS],,,,,,,,ka (MPXV A29 [4]): 4487 M⁻¹ s⁻¹; kd (MPXV A29 [4]): 2.8 × 10^−3 (±2.6 × 10^−5) s^−1; binding of GAG chip to MPXV A35 protein (in words) (MPXV A35 protein [5]): neither CS nor DS showed binding
chondroitin sulfate [CS],,,,,,,,binding of GAG chip to MPXV A35 protein (in words) (MPXV A35 protein [5]): neither CS nor DS showed binding
6-O-desulfated heparin [6-desulfated heparin],weaker inhibition,,,,,,,
pentosan polysulfate [PPS],strongest inhibition,,,,,,,inhibition of MPXV A29 binding to surface-immobilized heparin (MPXV A29 [1]): 62%
"[→3)-α-Fuc2,4S-(1→3)-αFuc2S-(1→3)-α-Fuc2S-(1→3)-α-Fuc4S-(1→]n [LvSF]",,23.6* %,showed the ability to inhibit,76.4%,16.9* %,showed the ability to inhibit,83.1%,

# From patent publication US20250120999A1 (priority 2022, published 2025)
